These results are taken from ChEMBL document CHEMBL1145042, “Understanding the structure-activity relationship of the human ether-a-go-go-related gene cardiac K+ channel. A model for bad behavior” (J Med Chem, 2003).

In general, MIC refers to the lowest concentration that inhibits growth of the organism. A lower MIC goes with a more susceptible organism.

The subject of this assay is Bacteria. In words: Bacterial minimum inhibitory concentration. The assay is classed as functional.

For the compound `Cc1c(F)c(N2CCNC(C)C2)cc2c1c(=O)c(C(=O)O)cn2C1CC1` (stereo unspecified) [GREPAFLOXACIN], the MIC was < 2.4 µM.
